Assay results: publication PMC9499463, “Potent Chlorambucil-Platinum(IV) Prodrugs” (International Journal of Molecular Sciences, 2022)
Several values for one entry are separate records, joined by “and”; a condition that tells them apart may be missing. Equal entries are not always repeated. Where two headings read alike, the source gives them in different places.

Tests used:
[1] = system: MCF-7 breast; conditions: MCF-7 cell line; read-out: GI50 MCF-7 of prodrug designed by Ma et al.; cited from earlier work
[2] = system: HT29 colon; experiment: MTT growth inhibition assay, 72 h; assay type: cell-based, human; conditions: for GI50: MTT, 72 h
[3] = system: BE2-C neuroblastoma; experiment: MTT growth inhibition assay, 72 h; assay type: cell-based, human
[4] = system: ADDP ovarian (cisplatin-resistant A2780 clone); experiment: MTT growth inhibition assay, 72 h; assay type: cell-based, human; conditions: for GI50: MTT, 72 h; for fold more active than cisplatin: ADDP ovarian cell line
[5] = system: panel of cell lines; experiment: MTT growth inhibition assay, 72 h, over the cell line panel; assay type: cell-based, human
[6] = system: Du145 prostate; experiment: MTT growth inhibition assay, 72 h; assay type: cell-based, human; conditions: for GI50: MTT, 72 h
[7] = system: A431 skin; experiment: MTT growth inhibition assay, 72 h; assay type: cell-based, human
[8] = system: MIA pancreas; experiment: MTT growth inhibition assay, 72 h; assay type: cell-based, human; conditions: for fold more active than CLB: MIA pancreas cell line; for GI50: MTT, 72 h
[9] = system: MCF-7 breast; experiment: MTT growth inhibition assay, 72 h; assay type: cell-based, human; conditions: MTT, 72 h
[10] = system: H460 lung; experiment: MTT growth inhibition assay, 72 h; assay type: cell-based, human
[11] = system: SJ-G2 glioblastoma; experiment: MTT growth inhibition assay, 72 h; assay type: cell-based, human
[12] = system: U87 glioblastoma; experiment: MTT growth inhibition assay, 72 h; assay type: cell-based, human
[13] = system: A2780 ovarian; experiment: MTT growth inhibition assay, 72 h; assay type: cell-based, human
[14] = system: HT29 colon cells; experiment: ROS detection assay (DCFH-DA fluorescence); assay type: cell-based, human; conditions: compounds at GI50 concentration, TBHP and NAC 20 μM
Experimental: HT29 colon cells were stained by DCFH-DA and then treated with the compounds at each specific GI50 concentration. Upon ROS production, the DCFH-DA produced […], a fluorescent product. The measured fluorescence was, therefore, proportional to the produced ROS. […] 56CLB at 24 h reported 395 RFU, 437 RFU at 48 h, and 558 RFU at 72 h (Table 6, Figure 14 and Figure S42), respectively, showing a significant production of ROS in comparison to control cells. 5CLB at 24 h produced 337 RFU, 324 RFU at 48 h, and 376 RFU at 72 h (Table 6, Figure 14 and Figure S42), respectively.
To investigate for the presence of ROS in treated cells, DCFDA/H2DCFDA-cellular ROS Assay Kit (Abcam, Cambridge, MA, USA) was used, as described. A total of 25,000 cells/mL of HT29 cells in DMEM were seeded in 96-well plates. Cells were washed with 1X kit buffer, then stained with 25 μM 2’,7’-dichlorofluorescein diacetate (DCFH-DA) and incubated for 45 min. DCFH-DA was then removed, and cells were then re-washed with 1X kit buffer, after which phenol red free media was added. Cells were then treated with GI50 drug concentration for each complex. The plates were directly scanned to measure fluorescence (relative fluorescence units (RFU)) at different time points using the Glo-Max®-Multimode microplate reader (Promega Corporation, Alexandra, VIC, Australia) at an excitation/emission of 485/535 nm. To generate the positive control (20 μM tert-butyl hydroperoxide (TBHP)), cells were washed with 1X kit buffer, and stained with DCFDA (25 μM) for 45 min. DCFDA was then removed and TBHP was added in phenol red free media. The plate was scanned to measure the RFU at different time points as mentioned above. The same method applies for the negative control treated with 20 μM N-acetylcysteine (NAC).

[15] = system: non-tumor-derived MCF10A breast line; experiment: MTT growth inhibition assay, 72 h; assay type: cell-based, human
[16] = Lipophilicity by HPLC (log kw); assay type: physicochemical; conditions: chromatographic lipophilicity index, extrapolated to 100% d.i.H2O
Text: For lipophilicity measurements, HPLC was utilized instead of the traditional shake-flask method, as described. A few studies have also reported the important and effective use of HPLC to measure the lipophilicity of compounds [66, 67]. Each complex was eluted under several isocratic ratios. A standard curve was then generated to calculate the log value of the capacity factor (log k) according to eqn (1). Following eqn (2), the percentage of organic solvent (CH3CN) in the mobile phase from each isocratic run was plotted against […] (Figure S34). Since log kw is the chromatographic lipophilicity index or measure of lipophilicity of the complex, a higher value corresponds to greater lipophilicity. Since PCLB, 5CLB, and 56CLB are structurally related, there were no significant variations in lipophilicity noted based on the calculated log kw values (Table 4). It is evident that PCLB is the least lipophilic of the group, with a calculated log kw value of 1.80, which is likely due to the absence of methyl groups in its phenanthroline system. 5CLB and 56CLB were the most lipophilic of the group with calculated log kw values of 1.90 and 1.87, respectively, and this is due to the presence of methyl substituents in their phenanthroline systems. […] Additionally, the chromatographic lipophilicity index of CLB was also measured using the abovementioned method, with a calculated log kw of 1.88, which is within the range observed for PCLB, 5CLB, and 56CLB. However, CLB was approximately 1-fold more lipophilic than PCLB. […] The order of increasing lipophilicity is […].
For lipophilicity measurements, analytical HPLC was utilized. Elution profiles were acquired on an Agilent Technologies 1260 Infinity instrument equipped with a Phenomenex Onyx^TM Monolithic C18-reverse phase column (100 × 4.6 mm, 5 µm pore size). The mobile phase consisted of solvents, A (0.06% TFA in d.i.H2O) and B (0.06% TFA in CH3CN/d.i.H2O (90:10)). Potassium iodide was used as an external dead volume marker to determine the dead time of the column. Retention times (TR) were measured at varying isocratic ratios ranging from 42% to 48% of solvent B at 1 mL/min. An injection volume of 10 µL was utilized. Capacity factors were determined according to Equation (1):(1) k=(TR−T0)/T0, where k is the capacity factor, TR is the retention time of the analyte, and T0 represents the dead time. A minimum of four different mobile compositions were used for each complex to calculate k. A linear plot was generated of log k against the concentration of CH3CN in the mobile phase to determine the value of log kw expressed by Equation (2):(2) logk=Sφ+logkw, where S is the slope, φ is the concentration of the CH3CN in the mobile phase and log kw represents the capacity factor of the complex in 100% d.i.H2O. […]

[17] = average over all cell lines tested, read-out: Average GI50 Values

SMILES | GI50 [2] [nM] | GI50 [3] [nM] | GI50 [4] [nM] | GI50 [5, 17] | GI50 [6] [nM] | GI50 [7] [nM] | fold more active than CLB [8] [fold] | GI50 [8] [nM] | GI50 [9] [nM] | GI50 [10] [nM] | GI50 [11] [nM] | GI50 [12] [nM] | GI50 [13] [nM] | fold more active than cisplatin [4] | ROS Production ([14]; 24 h) | ROS Production ([14]; 48 h) | ROS Production ([14]; 72 h) | GI50 [15] [nM] | further results
N.N.O=C([O-])CCCc1ccc(N(CCCl)CCCl)cc1.O=C([O-])CCCc1ccc(N(CCCl)CCCl)cc1.[Cl-].[Cl-].[Pt+4] | – | – | – | – | – | – | – | – | – | – | – | – | – | – | – | – | – | – | GI50 [1]: 2190 ± 0.02 nM
O=C1[O][Pt]2([NH][C@@H]3CCCC[C@H]3[NH]2)[O]C1=O (relative stereo) [Oxaliplatin, trans-L-(1R,2R-diaminocyclohexane) oxalatoplatinum(II), reference compound] | 900 ± 0.2 | 900 ± 0.2 | 800 ± 0.1 | 1463 ± 0.32 nM | 2900 ± 0.4 | 4100 ± 0.5 | 44 | 900 ± 0.2 | 500 ± 0.1 | 1600 ± 0.1 | 3000 ± 1.2 | 1800 ± 0.2 | 160 ± 0.1 | – | – | – | – | – | –
Cc1cc2cccnc2c2ncccc12.N[C@H]1CCCC[C@@H]1N.[Cl][Pt][Cl] [5MESS, [Pt^II(5-methyl-1,10-phenanthroline)(1S,2S-diaminocyclohexane)]Cl2] | 33 ± 0.0038 | 270 ± 0.038 | 34 ± 0.0023 | 117 ± 0.01 nM | 22 ± 0.0027 | 120 ± 0.025 | – | 48 ± 0.002 | 200 ± 0.012 | 41 ± 0.005 | 220 ± 0.01 | 320 ± 0.026 | 61 ± 0.01 | 800 fold | 204 ± 4 RFU | 205 ± 3 RFU | 188 ± 3 RFU | 30 ± 0.0018 | –
Cc1c(C)c2cccnc2c2ncccc12.N[C@H]1CCCC[C@@H]1N.[Cl][Pt][Cl] [56MESS, [Pt^II(5,6-dimethyl-1,10-phenanthroline)(1S,2S-diaminocyclohexane)]Cl2] | 10 ± 0.0016 | 59 ± 0.0041 | 13 ± 0.0022 | 40 nM and 36 nM | 4.6 ± 0.00039 | 29 ± 0.001 | ~4000 | 13 ± 0.002 | 93 ± 0.044 | 21 ± 0.0019 | 66 ± 0.022 | 35 ± 0.0064 | 76 ± 0.057 | more than 2000 fold | 240 ± 5 RFU | 218 ± 3 RFU | 255 ± 4 RFU | 16 ± 0.0012 | fold more active than CLB ([2]; HT29 colon cell line): ~4000 fold; fold increase in potency compared to CLB ([6]; Du145 prostate cell line): 6000 fold
O=C(O)CCCc1ccc(N(CCCl)CCCl)cc1 [CLB, 4-[bis(2-chloroethyl)amino] phenylbutyric acid, reference compound] | – | – | – | – | – | – | – | – | – | – | – | – | – | – | 110 ± 3 RFU | 190 RFU and 190 ± 5 RFU | 204 ± 4 RFU | – | GI50 ([2]; Homo sapiens, HT-29): 39000 nM; GI50 ([3]; Homo sapiens, BE(2)-C): 20000 nM; GI50 ([4]; Homo sapiens, Cisplatin-resistant A2780): 16000 nM; GI50 ([5]; Homo sapiens, average over all cell lines tested, read-out: Average GI50 Values): 22000 nM; GI50 ([5]; Homo sapiens, range over the cell lines named in the sentence, read-out: GI50 values ranging (over cell lines)): 4300 to 40000 nM; GI50 ([6]; Homo sapiens, DU-145): 27000 nM; GI50 ([7]; Homo sapiens, A-431): 35000 nM; GI50 ([8]; Homo sapiens): 40000 nM; GI50 ([9]; Homo sapiens, MCF7): 11000 nM; GI50 ([10]; Homo sapiens, NCI-H460): 11000 nM; log kw [16]: 1.88; GI50 ([15]; Homo sapiens, MCF-10A): 17000 nM; GI50 ([11]; Homo sapiens, SJ-G2): 11000 nM; GI50 ([12]; Homo sapiens): 38000 nM; GI50 ([13]; Homo sapiens, A2780): 4300 ± 0.4 nM
N.N.O=C([O-])C1(C(=O)[O-])CCC1.[Pt+2] [Carboplatin, cis-diammine(1,1-cyclobutanedicarboxylato) platinum(II), reference compound] | > 50000 | 19000 | > 50000 | 32200 nM | 15000 | 24000 | – | > 50000 | > 50000 | 14000 | 5700 ± 0.2 | > 50000 | 9200 ± 2.9 | – | – | – | – | > 50000 | –
N.N.[Cl][Pt][Cl] [Cisplatin, cis-diamminedichloroplatinum(II), reference compound] | 11300 | 1900 ± 0.2 | 28000 | 5842 ± 0.61 nM | 1200 ± 0.1 | 2400 ± 0.3 | 5 | 7500 ± 1.3 | 6500 ± 0.8 | 900 ± 0.2 | 400 ± 0.1 | 3800 ± 1.1 | 1000 ± 0.1 | – | 214 ± 9 RFU | 214 ± 9 RFU | 200 ± 9 RFU | 5200 ± 0.52 | –
CC(=O)N[C@@H](CS)C(=O)O [NAC, N-acetylcysteine, reference compound] | – | – | – | – | – | – | – | – | – | – | – | – | – | – | 71 ± 2 RFU | 85 ± 6 RFU | 91 ± 5 RFU | – | –
N[C@H]1CCCC[C@@H]1N.[Cl][Pt][Cl].c1cnc2c(c1)ccc1cccnc12 [PHENSS, [Pt^II(1,10-phenanthroline)(1S,2S-diaminocyclohexane)]Cl2] | 160 ± 0.045 | 380 ± 0.046 | 190 ± 0.047 | 434 ± 0.11 nM | 100 ± 0.038 | 480 ± 0.17 | – | 200 ± 0.057 | 1500 ± 0.5 | 360 ± 0.035 | 330 ± 0.066 | 980 ± 0.27 | 230 ± 0.03 | 150 fold | 174 ± 2 RFU | 172 ± 9 RFU | 176 ± 7 RFU | 300 ± 0.058 | –
CC(C)(C)OO [TBHP, tert-butyl hydroperoxide, reference compound] | – | – | – | – | – | – | – | – | – | – | – | – | – | – | 514 RFU and 514 ± 3 RFU | 336 RFU and 336 ± 2 RFU | 332 RFU and 332 ± 5 RFU | – | –
